# Measurements from US10400004B2, “Chemical synthesis method of phillyrin” (priority 2014, dated 2019).
# Where two headings read alike, the source gives them in different places. Marks after values point to notes of the source that are not given here.
# Columns and labels:
# Parainfluenza virus [1] = experiment: Impact of the drugs on virus-induced cytopathy (MTT, ER %); assay type: cell-based
# enterovirus EV71 = experiment: as above; assay type: cell-based
# [2] = tested on: Coxsackie virus A16 (CoxA16); experiment: as above; assay type: cell-based
# Vero cells = experiment: Drug cytotoxicity assay (MTT) on Vero cells; assay type: cell-based, African green monkey; conditions: 72 h, Probit regression
# Description: Vero cells were subcultured for 1-2 days to form a film. […] The digestion was drained after needle-like holes occurred on the cell surface, then cells were dispersed with a few milliliters of medium, counted, then diluted to about 5×10^7 cells/L with DMEM containing 10% fetal bovine serum and transferred to a 96-pore culture plate until monolayer formed.
# Cytotoxicity test: the drugs were diluted according to the concentrations shown in Table 1-1 for cytotoxicity assays.
# Different concentrations of drugs diluted with the above maintenance medium (DMEM containing 2% fetal calf serum) were added dropwise to Vero monolayer cells with 0.2 ml per pore, and for each concentration, the drugs were added in sextuplicate in 6 pores respectively. In addition, 6 pores were set up as normal control (without drugs) while another 6 pores as blank control (medium only). Cells were grown in a 37° C. incubator under 5% CO2. CPE was visualized under the invert microscope and recorded daily. After 72 h, 20 μL MTT solution (5 mg·mL^−1) was added into each pore and incubated for 4 h. The culture medium in each pore was sucked and discarded, 100 μL DMSO was added to each pore. Then the culture was shaken for 5 min, measured OD value at 492 nm to calculate the cell survival ratio. The cell survival ratio was analyzed using a Probit regression model in SPSS 18.0 statistical software, and the maximal nontoxic concentration (TC0) and median toxic concentration (TC50) of drugs against Vero cells were calculated.
# [3] = tested on: Coxsackie virus B3 (CVB3); experiment: Impact of the drugs on virus-induced cytopathy (MTT, ER %); assay type: cell-based
# Influenza virus [4] = experiment: as above; assay type: cell-based
# Adenovirus (AdV) = experiment: as above; assay type: cell-based
# [5] = tested on: respiratory syncytical virus (RSV); experiment: as above; assay type: cell-based
# influenza virus [6] = assay type: in vivo, Kunming mice
# [7] = tested on: Herpes simplex virus type I (HSV-1); experiment: Impact of the drugs on virus-induced cytopathy (MTT, ER %); assay type: cell-based
# parainfluenza virus [8] = assay type: in vivo, Kunming mice
# [9] = Solubility of the synthesized white solid; assay type: physicochemical; conditions: white solid of Embodiment 1
# [10] = mice, influenza virus 15LD50 nasally, 19.5 mg/kg/d intragastric, 5 days
# [11] = mice, parainfluenza virus 15LD50 nasally, 19.5 mg/kg/d intragastric, 5 days
# [12] = summary of Table 1-3, Vero cells
# [13] = mice, parainfluenza virus 15LD50 nasally, 3.25 mg/kg/d (low-dose) intragastric, 5 days
compound,measurement,setting,value
"CCOC(=O)C1=C[C@@H](OC(CC)CC)[C@H](NC(C)=O)[C@@H](N)C1 [Oseltamivir phosphate, reference compound]",antiviral efficiency (ER %),Parainfluenza virus [1],94.52** %
same,antiviral efficiency (ER %),enterovirus EV71,51.86%
same,antiviral efficiency (ER %),[2],2.95%
same,Maximal non-cytotoxic concentration (TC0),Vero cells,0.28 g/L
same,Median toxic concentration (TC50),Vero cells,832 µg/mL
same,antiviral efficiency (ER %),[3],1.64%
same,antiviral efficiency (ER %),"Influenza virus [4]; Vero cells, 100 TCID50, 72 h, MTT, drug at maximal non-cytotoxic concentration or so (Table 1-2 last row: phillyrin 0.01, ribavirin 0.70, oseltamivir phosphate 0.30 g/L)",81.76** %
same,antiviral efficiency (ER %),Adenovirus (AdV),10.31%
same,antiviral efficiency (ER %),[5],37.60%
same,Lung index (X ± S),influenza virus [6]; [10],1.191 ± 0.062
same,Lung index Inhibitory rate (%),influenza virus [6]; [10],20.71%
same,antiviral efficiency (ER %),[7],66.56** %
same,Lung index (X ± S),parainfluenza virus [8]; [11],1.256 ± 0.057
same,Lung index Inhibitory rate (%),parainfluenza virus [8]; [11],21.56%
phillyrin,antiviral efficiency (ER %),Parainfluenza virus [1],84.96** %
same,inhibitory effect (in words),Parainfluenza virus [1]; [12],significant
same,antiviral efficiency (ER %),enterovirus EV71,84.85** %
same,inhibitory effect (in words),enterovirus EV71; [12],significant
same,antiviral efficiency (ER %),[2],75.08** %
same,inhibitory effect (in words),[2]; [12],significant
same,Maximal non-cytotoxic concentration (TC0),Vero cells,0.006 g/L
same,Median toxic concentration (TC50),Vero cells,550 µg/mL
same,antiviral efficiency (ER %),[3],75.27** %
same,inhibitory effect (in words),[3]; [12],significant
same,antiviral efficiency (ER %),Influenza virus [4],75.38** %
same,inhibitory effect (in words),Influenza virus [4]; [12],significant
same,antiviral efficiency (ER %),Adenovirus (AdV),75.14** %
same,inhibitory effect (in words),Adenovirus (AdV); [12],significant
same,antiviral efficiency (ER %),[5],80.40** %
same,inhibitory effect (in words),[5]; [12],significant
same,solubility (in words),[9],soluble in chloroform and methanol
same,effect on mice viral pneumonia (in words),"influenza virus [6]; influenza virus, 3.25 to 13.0 mg/kg/d",significant inhibitory effect
same,hemagglutination titers (in words),"influenza virus [6]; influenza virus, 3.25 to 13.0 mg/kg/d, compared to virus control group",greatly reduce
same,Lung index (X ± S),"influenza virus [6]; mouse, in vivo, 3.25 mg/kg/day",1.339 ± 0.045
same,Lung index Inhibitory rate (%),"influenza virus [6]; mouse, in vivo, 3.25 mg/kg/day",10.82%
same,Lung index (X ± S),"influenza virus [6]; mouse, in vivo, 13 mg/kg/day",1.290 ± 0.041
same,Lung index Inhibitory rate (%),"influenza virus [6]; mouse, in vivo, 13 mg/kg/day",14.51%
same,antiviral efficiency (ER %),[7],85.00** %
same,inhibitory effect (in words),[7]; [12],significant
same,Lung index (X ± S),parainfluenza virus [8]; [13],1.360 ± 0.052
same,Lung index Inhibitory rate (%),parainfluenza virus [8]; [13],15.03%
same,Lung index (X ± S),"parainfluenza virus [8]; mouse, in vivo, 13 mg/kg/day",1.2297 ± 0.071
same,Lung index Inhibitory rate (%),"parainfluenza virus [8]; mouse, in vivo, 13 mg/kg/day",19.01%
same,effect on mice viral pneumonia (in words),"parainfluenza virus [8]; parainfluenza virus, 3.25 to 13.0 mg/kg/d",significant inhibitory effect
same,hemagglutination titers (in words),"parainfluenza virus [8]; parainfluenza virus, 3.25 to 13.0 mg/kg/d, compared to virus control group",greatly reduce
